# Measurements taken from patent publication US10815283B2, “Peptides for treatment of diabetes” (Follicum AB, priority 2017, dated 2020).
# “Also recorded” adds a separate entry of the source. No end group written: not given here.
# Tests used:
# [1] = In vivo bio-distribution of Cy7.5 labelled peptides, Pearl Trilogy Small Animal Imaging System; parameters: species or system mouse; conditions: Cy7.5 labelled peptide
# [2] = system: mouse pancreatic islets; assay: Insulin secretion from isolated mouse pancreatic islets (Examples 5 and 7); format: cell-based; conditions: 60 min
# Procedure: Mouse pancreatic islets were isolated from 8-week old C57BL/6J male mice (Taconic). Mice were sacrificed by an overdose of isoflurane and cervical dislocation. 3 ml of 0.9 U/ml collagenase P was injected into the pancreatic duct to inflate the pancreas. The pancreas was then removed and collagen digested for 19 min at 37° C. The samples were vigorously shaken to disrupt the tissue. The digest was transferred into ice cold Hank's Balanced Salt Solution (HBSS) with Ca^2+ and Mg^2+. The suspension was allowed to sit for 10 min to allow the islet to sink, and the islets were washed in fresh HBSS four times. The islets were then hand-picked and sorted according to size. Islets (n=3 per well in a 96 well plate) were pre-incubated in KRB buffer during 10 min 37° C., pH 7.4, supplemented with 10 mM HEPES, 0.1% bovine serum albumin. After pre-incubation, the buffer was changed and islets were incubated at different test conditions in new KRB buffer with 0.1% bovine serum albumin (non-treated ctrl, FOL-005 peptide, or GLP-1) for 60 min at 37° C. Immediately after incubation, an aliquot of the buffer was removed and frozen for subsequent assay of insulin.
# Mouse pancreatic islets were isolated from 8-week old C57BL/6J male mice as described under example 5. The islets were then hand-picked and sorted according to size. Islets (n=5 per well in a 96 well plate) were pre-incubated in 200 μl KRB buffer during 10 min 37° C., pH 7.4, supplemented with 10 mM HEPES, 0.1% bovine serum albumin. Following pre-incubation, the buffer was changed and islets were incubated in different test conditions in new KRB buffer with 0.1% bovine serum albumin (non-treated ctrl, FOL-014 peptide, and GLP-1) for 60 min at 37° C. Immediately after incubation, an aliquot of the buffer was removed and frozen for subsequent assay of insulin.
# [3] = system: INS-1 cells; assay: Proliferation of INS-1 cells, [methyl-3H] thymidine incorporation; format: cell-based, rat
# Procedure: To investigate if FOL-005 and FOL-014 could induce proliferation of β-cells we used INS-1 cells. Rat INS-1 cells were seeded in 96-well plates in RPMI medium with supplement and after 2 hours the medium was changed to RPMI without supplement. During the proliferation experiment the cells were incubated at different test conditions (FOL-005, FOL-014, coated or in solution, 48 h incubation) and during the last 20 hours of culture period the cells were pulsed with 1μ Ci/well of [methyl-3H] thymidine. The cells were then harvested onto glass fiber filters using a FilterMate harvester. The filters were air dried, and the bound radioactivity was measured using a liquid scintillation counter. To study whether FOL-005 influenced β-cell proliferation, INS-1 cells were treated with increasing amounts of soluble FOL-005 (0.06-6 μM) during 48 hours and proliferation was measured with radiolabeled thymidine incorporation into newly synthesized DNA.
# [4] = system: INS-1 cells; assay: Glucotoxicity-induced apoptosis in INS-1 cells (Annexin V staining, caspase-3 activity); format: cell-based, rat; conditions: 20 mM glucose, 48 h, vs 20 mM glucose alone
# Procedure: Since glucotoxicity in pancreatic β-cells is a well-established process in type 2 diabetes we next investigated the protective effects of FOL-005 on β-cells during glucotoxic conditions. First we confirmed that 20 mM glucose induced cell apoptosis in INS cells after 48 h of exposure. High glucose (20 mM) containing RPMI medium induced more Annexin V positive cells and more caspase-3 activity in INS cells compared to cells incubated with medium containing 5 mM glucose (FIG. 2A-B). […] The rate of apoptosis in INS-1 cells was measured with either Caspase-3 Assay Kit or stained with Annexin V Apoptosis Detection Kit with 7-AAD. Caspase-3 activity was measured with fluorescence at an excitation wavelength of 380 nm and an emission wavelength of 440 nm. Caspase-3 activity was then normalized to protein concentration in each well. Measurements of Annexin V stained cells were performed using a CyAn ADP flow cytometer and analyzed with Summit V4.3 software.
# [5] = Distribution of H3 labelled peptide, whole body sectioning; format: in vivo, mouse; conditions: subcutaneous, C57Bl/6 mice, 1 h and 2 h after injection
# Procedure: C57Bl/6 mice were injected subcutaneously with H^3 labelled FOL-005 and euthanized at 1 h (FIG. 12A) or 2 h (FIG. 12B) after injection. Following whole body sectioning the distribution of the labelled peptide was visualised. […] Using Pearl Trilogy Small Animal Imaging System, in vivo bio-distribution and tissue localization of two Cy7.5 labelled peptides, FOL-005 (FIG. 12C) and FOL-014 (FIG. 12D) in NMRI nude mice via subcutaneous injection was investigated. […] The dose of each peptide was 10 nmol per mouse. The mice were imaged before injection, at 5 min, 20 min, 50 min, 60 min, 2 hrs, 4 hrs, 6 hrs, 24 hrs and 48 hrs post administration of labelled peptide.
# [6] = system: INS-1 β-cells; assay: Insulin secretion from INS-1 cells, insulin radioimmunoassay (Examples 4 and 6); format: cell-based, rat; conditions: peptide 6 μM, 60 min
# Procedure: To investigate the stimulatory effect of FOL-005 on insulin secretion, INS-1 β-cells were used in the following experiments. Cells were seeded overnight in cRPMI and then washed with PBS before pre-incubation for 60 min at 37° C. in Krebs-Ringer bicarbonate buffer (KRB), pH 7.4, supplemented with 10 mM HEPES, 0.1% bovine serum albumin. After pre-incubation, the buffer was changed and the INS-1 cells were incubated at different test conditions (0 mM, 5 mM or 20 mM glucose) and stimulated with peptide FOL-005 or FOL-015 (SEQ ID NO: 158) or left untreated during 60 min at 37° C. Immediately after incubation, an aliquot of the buffer was removed and frozen for subsequent assay of insulin with an insulin radioimmunoassay kit.
# INS-1 β-cells were used to investigate the stimulatory effect of FOL-014 on insulin secretion. Cells were seeded overnight and then washed with PBS before pre-incubation for 60 min at 37° C. in Krebs-Ringer bicarbonate buffer (KRB), pH 7.4, supplemented with 10 mM HEPES, 0.1% bovine serum albumin. After pre-incubation, the buffer was changed and the INS-1 cells were incubated in new KRB buffer supplemented with 10 mM HEPES, 0.1% bovine serum albumin and stimulated with peptide FOL-014 or left untreated during 60 min at 37° C. Immediately after incubation, an aliquot of the buffer was removed and frozen for subsequent assay of insulin.
# [7] = system: isolated mouse islets; assay: Insulin and glucagon secretion from isolated mouse islets at low and high glucose (Example 12); format: cell-based; conditions: 100 nM GLP-1, 1 h
# Procedure: Twelve-week-old male C57/bl6 mice were euthanized with isoflurane and cervical dislocation. After clamping the hepatic ducts, 3 ml of 0.9 U/ml collagenase P was injected into the bile duct to inflate the pancreas. The pancreas was then removed and digested for 19 min at 37° C. The samples were vigorously shaken to disrupt the tissue. The digest was quickly transferred into ice cold Hank's Balanced Salts Solution with Ca^2+ and Mg^2+. The suspension was allowed to sit for 8 min to allow the islet to sink, and the islets were washed in the same manner four times. The islets were then handpicked and sorted according to size.
# Freshly isolated islets were seeded in groups of 5 in a 96-well plate and preincubated for 1 h at 37° C. in a Krebs-Ringer bicarbonate buffer (pH 7.4). The islets were incubated for 1 h at 37° C. in Krebs-Ringer buffered solution supplemented with 0.6 or 6 μM FOL-014 or 100 nM GLP-1 or left unsupplemented for control. Immediately after incubation, the medium was removed for assays of insulin and glucagon using Mercodia's ELISA kits. The effect of FOL-014 on insulin (FIGS. 8A and B) and glucagon (FIGS. 8C and D) secretion from isolated mouse islets was measured in the presence of low glucose (2.8 mM; FIGS. 8A and C) or high glucose (16.7 mM; FIGS. 8B and D) concentrations.
Substance,bio-distribution and tissue localization ([1]; i.v. administration (not shown)),"bio-distribution and tissue localization ([1]; subcutaneous, 10 nmol per mouse, NMRI nude mice, 5 min to 48 hrs)","insulin secretion ([2]; Example 5, 3 islets per well, peptide 6 μM)","INS-1 cell proliferation (radiolabeled thymidine incorporation) ([3]; soluble peptide 0.06-6 μM, 48 hours)","INS-1 cell proliferation (radiolabeled thymidine incorporation) ([3]; wells coated with peptide and blocked with BSA, vs control coated wells)","cell apoptosis, Annexin V staining [4]","cell apoptosis, caspase-3 activity [4]",tissue distribution of radioactivity [5],insulin secretion ([6]; 5 mM glucose),insulin secretion ([6]; 20 mM glucose),insulin secretion ([6]; conditions without glucose),glucagon secretion ([7]; high glucose (16.7 mM)),insulin secretion ([7]; high glucose (16.7 mM)),glucagon secretion ([7]; low glucose (2.8 mM)),insulin secretion ([7]; low glucose (2.8 mM)),"insulin secretion ([2]; Example 5, 3 islets per well, GLP-1 100 nM)","insulin secretion ([2]; Example 7, 5 islets per well, GLP-1 100 nM)"
"VDTYDGDISVVYGLR ((1)..(15) peptide, FOL-005)",same distribution pattern,High accumulation of the peptide was evident in the pancreatic tissue area,secreted more insulin compared to unstimulated control islets,stimulated INS-1 cell proliferation,stimulated proliferation compared to control (ctrl) coated wells,decreased cell apoptosis,decreased cell apoptosis,"Strong binding was evident in pancreas and at the site of injection; also recorded: also visible in liver, kidney, salivary glands",responded with insulin secretion,responded with more insulin secretion compared to FOL-005 stimulated cells incubated with 5 mM glucose,secreted more insulin compared to unstimulated control cells,–,–,–,–,–,–
"glucagon-like peptide-1 (HAEGTFTSDVSSYLEGQAAKEFIAWLVKGR; ends and bridges not checked; UniProt P01275 98-127, looked up) [GLP-1, metabolic hormone that stimulates insulin secretion; native GLP-1 used as comparator]",–,–,–,–,–,–,–,–,–,–,–,efficiently reduced glucagon secretion,significantly increased insulin secretion,failed to inhibit glucagon secretion in low glucose conditions,enhanced insulin secretion also in low glucose samples,secreted more insulin compared to unstimulated control islets,did not affect insulin secretion
